For data set [1], the system named is ALLC (amyloidogenic light chain). In words: Light chain ELISA, ALLC from ALMC-2 plasma cells. Format: cell-based, human. To be noted: ALMC-2 cells; for pEC50: read-out: EC50 of dose dependent reduction in ALLC secretion. As to the method:
ALMC-2 or KAS-6/1 plasma cells were plated 100,000 cells/well in 150 μL of media in 96-well MultiScreenHTS filtration plates (Millipore MSBVS1210). Triplicate wells were treated with DMSO or compounds at the indicated concentrations and incubated for 16 h. Media was removed by filtration using a QIAvac 96 vacuum manifold (Qiagen) and wells were washed two times with 150 μL media. Wells were then incubated with 150 μL of fresh media for 2 hr and the conditioned media was harvested into a 96-well plate using the vacuum manifold. Free λLC and IgG concentrations were determined by ELISA in 96-well plates (Immulon 4HBX, Thermo Scientific). Wells were coated overnight at 37° C. with rabbit anti-human A light chain polyclonal antibody (Bethyl Laboratories, A90-112A) at a 1:1000 dilution or human IgG-heavy and light chain antibody (Bethyl Laboratories, A80-118A) at a 1:2000 dilution in 50 mM sodium carbonate (pH 9.6). In between all incubation steps, the plates were rinsed extensively with Tris-buffered saline containing 0.05% Tween-20 (TBST). Plates were blocked with 5% non-fat dry milk in TBST for 1 h at 37° C. Media analytes were diluted between 5-200 fold in 5% non-fat dry milk in TBST and 100 μL of each sample was added to individual wells. Light chain or IgG standards ranging from 3-300 ng/mL were prepared from purified human Bence Jones A light chain or human reference serum (Bethyl Laboratories, P80-127 and RS10-110). Plates were incubated at 37° C. for 1.5 h while shaking. Finally, HRP-conjugated goat anti-human A light chain antibody (Bethyl Laboratories, A80-116P) was added at a 1:10,000 dilution or HRP-conjugate IgG-Fc fragment cross-adsorbed antibody (Bethyl Laboratories, A80-304P, 1:30,000 dilution) was added in 5% non-fat dry milk in TBST, followed by a 1.5 h incubation of the plates at 37° C. The detection was carried out with 2,2′-azinobis(3-ethylbenzothiazoline-6-sulfonic acid) (ABTS, 0.18 mg/mL) and 0.03% hydrogen peroxide in 100 mM sodium citrate pH 4.0. Detection solution (100 μL) was added to each well and the plates were incubated at room temperature. The absorbance was recorded at 405 nm and the values for the LC standards were fitted to a 4-parameter logistic function. Light chain or IgG concentrations were averaged from at least 3 independent replicates under each treatment and then normalized to vehicle conditions.

A further data set deals with ^FTTTR^A25T. Briefly: [35S] metabolic labeling, secretion of flag-tagged TTR^A25T from HepG2^ATF6 cells. The class given is cell-based. As to conditions: 15 h pretreatment, 4 h chase; for degradation of ^FTTTR^A25T / reduction of ^FTTTR^A25T secretion: 10 μM. As to the method:
HepG2 cells or HEK293T cells plated on poly-D-lysine coated plates were metabolically labeled in DMEM-Cys/-Met (CellGro) supplemented with glutamine, penicillin/streptomycin, dialyzed fetal bovine serum, and EasyTag EXPRESS^35S Protein Labeling Mix (Perkin Elmer) for 30 min. Cells were washed twice with complete media and incubated in prewarmed DMEM for the indicated times. Media or lysates were harvested at the indicated times. Lysates were prepared in RIPA buffer with fresh protease inhibitor cocktail (Roche). FLAG tagged TTR variants or ALLC were immunopurified using M1 anti-FLAG agarose beads (Sigma-Aldrich) and washed three times with RIPA buffer. The immunoisolates were then eluted by boiling in Laemmli buffer and separated on SDS-PAGE. For total secreted media, 15 uL aliquots from media incubated for 4 hrs on pulsed cells were run on a SDS-PAGE. The gels were then dried, exposed to phosphorimager plates (GE Healthcare), and imaged with a Typhoon imager. Band intensities were quantified by densitometry in ImageQuant. Fraction secreted was calculated using the equation: fraction secreted=[extracellular [^35S]-LC signal at t=t/(extracellular [^35S]-LC signal at t=0+intracellular [^35S]-LC signal at t=0)]. Fraction remaining was calculated using the equation: [(extracellular [^35S]-LC signal at t=t+intracellular [^35S]-LC signal at t=t)/(extracellular [^35S]-LC signal at t=0+ intracellular [^35S]-LC signal at t=0)].

A further data set deals with ALMC-2 cells. Briefly: ALMC-2 cell viability (CellTiter-Glo). Format: cell-based, human. To be noted: 10 μM. On the procedure:
HepG2 cells were plated at 5,000 cells/well in a translucent, flat-bottomed 96 well plate, and treated for 48 hr with vehicle, 10 μM Tg or 10 μM ER proteostasis regulator. ALMC-2 or KAS-6/1 cells were plated at 33,000 cells/well in 96-well plates then treated with proteostasis regulators for 16 h as described. Cell metabolic activity was measured using the CellTiter-Glo assay (Promega), which reports on intracellular ATP concentration. CellTiter-Glo reagent was added to cell culture media at a 1:1 ratio and incubated for 2 minutes on an orbital shaker to induce cell lysis. The plate was then incubated at room temperature for 10 minutes to stabilize the luminescent signal and read on a Tecan F200 Pro microplate reader.

SMILES strings stand for the structures. pEC50: −log10 of the molar value.

Take `Cc1ccc(O)c(N/C=C/C(=O)c2ccc(F)cc2)c1` [Compound 132]: the pEC50 in data set [1] was around 6.00. The “^FTTTR^A25T secretion (in words)” value in the data set on ^FTTTR^A25T (10 μM compound or 1 μM Tg) is recorded as “did not significantly influence”. Further, in the data set on ^FTTTR^A25T, the “degradation of ^FTTTR^A25T” value is on record as “did not significantly influence”. For the same compound, the “reduction in cell viability” value in the data set on ALMC-2 cells was 45%.

On to `Cc1ccc(O)c(NC(=O)CCc2ccccc2)c1` [Compound 147], for which the “reduction of ALLC secretion” value in data set [1] (10 μM pretreatment, ELISA) worked out at 60%. For the same compound, the “ALLC intracellular protein levels” value in data set [1] (ELISA) is “unchanged”. Further, the pEC50 in data set [1] was around 6.00. In the data set with ^FTTTR^A25T, the “degradation of ^FTTTR^A25T” value is on record as “increased degradation” and the “reduction of ^FTTTR^A25T secretion” value is 45%. In addition, in the data set on ALMC-2 cells, the “cell viability (in words)” value was “do not significantly affect”.

Turning to `O=[N+]([O-])c1ccc(N/N=C/c2ccccc2O)cc1` [Compound 263], the “ALLC secretion (in words)” value in data set [1] (10 μM) is given as “only minimally affects”. In the data set on ^FTTTR^A25T, the “degradation of ^FTTTR^A25T” value is “increased degradation” and the “reduction of ^FTTTR^A25T secretion” value amounted to 45%.

Values taken from patent US11135186B2, “Regulators of the endoplasmic reticulum proteostasis network” (The Scripps Research Institute, priority 2015, dated 2021).
